Measured values reported in patent publication US20230085307A1, “PYRIDAZINONE COMPOUND AND HERBICIDE” (NISSAN CHEMICAL CORPORATION, priority 2019, published 2023).

Columns and labels:
redroot pigweed = assay: Test Example 5: herbicidal effect by foliage application, plastic box (Table 20, symbol N); format: in vivo, redroot pigweed (Amaranthus retroflexus); conditions: foliage application, three weeks after application; for herbicidal effect grade, N: redroot pigweed: 320 g/ha
Summary of the method: (§1)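 Foliar spray test: emulsion formulation diluted in water to a set application rate, sprayed onto 14-day-old plants raised in diluvial soil at 25° C to 30° C under glass. Both herbicidal effect and crop effect rated visually three weeks later.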

wild oat = assay: Test Example 5: herbicidal effect by foliage application, plastic box (Table 20, symbol I); format: in vivo, wild oat (Avena fatua); conditions: foliage application, three weeks after application; for herbicidal effect grade, I: wild oat: 320 g/ha
Summary of the method: as §1

barnyard grass [1] = assay: Test Example 3: herbicidal effect by foliage application, Wagner pot (Table 18, symbol H); format: in vivo, barnyard grass (Echinochloa crus-galli); conditions: 320 g/ha
Summary of the method: (§2)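 Plants were sown in alluvial soil held under 0.1–0.5 cm standing water and grown 14 days in a greenhouse at 25–30 °C. An emulsifiable formulation, water-diluted to the set dose, was then sprayed onto the foliage, and effects were scored three weeks later using previously defined criteria.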

lambsquarters = assay: Test Example 5: herbicidal effect by foliage application, plastic box (Table 20, symbol O); format: in vivo, lambsquarters (Chenopodium album); conditions: foliage application, three weeks after application; for herbicidal effect grade, O: lambsquarters: 320 g/ha
Summary of the method: as §1

Chinese sprangletop = assay: Test Example 3: herbicidal effect by foliage application, Wagner pot (Table 18, symbol D); format: in vivo, chinese sprangletop (Leptochloa chinensis); conditions: 320 g/ha
Summary of the method: as §2

chickweed = assay: Test Example 5: herbicidal effect by foliage application, plastic box (Table 20, symbol P); format: in vivo, common chickweed (Stellaria media); conditions: foliage application, three weeks after application; for herbicidal effect grade, P: chickweed: 320 g/ha
Summary of the method: as §1

green foxtail = assay: Test Example 5: herbicidal effect by foliage application, plastic box (Table 20, symbol G); format: in vivo, green foxtail (Setaria viridis); conditions: foliage application, three weeks after application; for herbicidal effect grade, G: green foxtail: 320 g/ha
Summary of the method: as §1

velvetleaf = assay: Test Example 5: herbicidal effect by foliage application, plastic box (Table 20, symbol M); format: in vivo, velvetleaf (Abutilon theophrasti); conditions: foliage application, three weeks after application; for herbicidal effect grade, M: velvetleaf: 320 g/ha
Summary of the method: as §1

Italian ryegrass = assay: Test Example 5: herbicidal effect by foliage application, plastic box (Table 20, symbol K); format: in vivo, Italian ryegrass (Lolium multiflorum); conditions: foliage application, three weeks after application; for herbicidal effect grade, K: Italian ryegrass: 320 g/ha
Summary of the method: as §1

barnyard grass [2] = assay: Test Example 5: herbicidal effect by foliage application, plastic box (Table 20, symbol H); format: in vivo, barnyard grass (Echinochloa crus-galli); conditions: foliage application, three weeks after application; for herbicidal effect grade, H: barnyard grass: 320 g/ha
Summary of the method: as §1

false cleavers = assay: Test Example 5: herbicidal effect by foliage application, plastic box (Table 20, symbol Q); format: in vivo, false cleavers (Galium spurium); conditions: foliage application, three weeks after application; for herbicidal effect grade, Q: false cleavers: 320 g/ha
Summary of the method: as §1

blackgrass = assay: Test Example 5: herbicidal effect by foliage application, plastic box (Table 20, symbol J); format: in vivo, blackgrass (Alopecurus myosuroides); conditions: foliage application, three weeks after application; for herbicidal effect grade, J: blackgrass: 320 g/ha
Summary of the method: as §1

rice flat sedge = assay: Test Example 3: herbicidal effect by foliage application, Wagner pot (Table 18, symbol E); format: in vivo, rice flat sedge (Cyperus iria); conditions: 320 g/ha
Summary of the method: as §2

windgrass = assay: Test Example 5: herbicidal effect by foliage application, plastic box (Table 20, symbol L); format: in vivo, windgrass (Apera spica-venti); conditions: foliage application, three weeks after application; for herbicidal effect grade, L: windgrass: 320 g/ha
Summary of the method: as §1

southern crabgrass = assay: Test Example 5: herbicidal effect by foliage application, plastic box (Table 20, symbol F); format: in vivo, southern crabgrass (Digitaria ciliaris); conditions: foliage application, three weeks after application; for herbicidal effect grade, F: southern crabgrass: 320 g/ha
Summary of the method: as §1

persian speedwell = assay: Test Example 5: herbicidal effect by foliage application, plastic box (Table 20, symbol R); format: in vivo, Persian speedwell (Veronica persica); conditions: foliage application, three weeks after application; for herbicidal effect grade, R: persian speedwell: 320 g/ha
Summary of the method: as §1

| Structure (SMILES) | herbicidal effect grade, N: redroot pigweed (redroot pigweed) | herbicidal effect grade, I: wild oat (wild oat) | herbicidal effect on H (barnyard grass), rating 0-5 (barnyard grass [1]) | herbicidal effect grade, O: lambsquarters (lambsquarters) | herbicidal effect on D (Chinese sprangletop), rating 0-5 (Chinese sprangletop) | herbicidal effect grade, P: chickweed (chickweed) | herbicidal effect grade, G: green foxtail (green foxtail) | herbicidal effect grade, M: velvetleaf (velvetleaf) | herbicidal effect grade, K: Italian ryegrass (Italian ryegrass) | herbicidal effect grade, H: barnyard grass (barnyard grass [2]) | herbicidal effect grade, Q: false cleavers (false cleavers) | herbicidal effect grade, J: blackgrass (blackgrass) | herbicidal effect on E (rice flat sedge), rating 0-5 (rice flat sedge) | herbicidal effect grade, L: windgrass (windgrass) | herbicidal effect grade, F: southern crabgrass (southern crabgrass) | herbicidal effect grade, R: persian speedwell (persian speedwell) | other results |
| --- | --- | --- | --- | --- | --- | --- | --- | --- | --- | --- | --- | --- | --- | --- | --- | --- | --- |
| CCCC(=O)Oc1c(C)nn(C)c(=O)c1-c1c(-c2ccc(OC)cc2OC)sc2ccccc12 [1-071] | 0 (Herbicidal rate of 5% or less (almost no effect)) | 0 (Herbicidal rate of 5% or less (almost no effect)) | 2 (Herbicidal rate of 20% or more and less than 40%) | 0 (Herbicidal rate of 5% or less (almost no effect)) | 0 (Herbicidal rate of 5% or less (almost no effect)) | 2 (Herbicidal rate of 20% or more and less than 40%) | 0 (Herbicidal rate of 5% or less (almost no effect)) | 3 (Herbicidal rate of 40% or more and less than 70%) | 0 (Herbicidal rate of 5% or less (almost no effect)) | 0 (Herbicidal rate of 5% or less (almost no effect)) | 0 (Herbicidal rate of 5% or less (almost no effect)) | 0 (Herbicidal rate of 5% or less (almost no effect)) | 0 (Herbicidal rate of 5% or less (almost no effect)) | 0 (Herbicidal rate of 5% or less (almost no effect)) | 0 (Herbicidal rate of 5% or less (almost no effect)) | 1 (Herbicidal rate of 5% or more and less than 20%) | – |
| Cc1nn(C)c(=O)c(-c2c(-c3ccoc3)sc3ccccc23)c1O [1-081] | 2 (Herbicidal rate of 20% or more and less than 40%) | 0 (Herbicidal rate of 5% or less (almost no effect)) | 3 (Herbicidal rate of 40% or more and less than 70%) | 0 (Herbicidal rate of 5% or less (almost no effect)) | 0 (Herbicidal rate of 5% or less (almost no effect)) | 3 (Herbicidal rate of 40% or more and less than 70%) | 0 (Herbicidal rate of 5% or less (almost no effect)) | 3 (Herbicidal rate of 40% or more and less than 70%) | 3 (Herbicidal rate of 40% or more and less than 70%) | 0 (Herbicidal rate of 5% or less (almost no effect)) | 2 (Herbicidal rate of 20% or more and less than 40%) | 0 (Herbicidal rate of 5% or less (almost no effect)) | 4 (Herbicidal rate of 70% or more and less than 90%) | 0 (Herbicidal rate of 5% or less (almost no effect)) | 0 (Herbicidal rate of 5% or less (almost no effect)) | 4 (Herbicidal rate of 70% or more and less than 90%) | – |
| Cc1nn(C)c(=O)c(-c2c(-c3ccc4c(c3)OCCO4)sc3ccccc23)c1OS(C)(=O)=O [1-094] | – | – | 3 (Herbicidal rate of 40% or more and less than 70%) | – | 0 (Herbicidal rate of 5% or less (almost no effect)) | – | – | – | – | – | – | – | 3 (Herbicidal rate of 40% or more and less than 70%) | – | – | – | N: redroot pigweed, herbicidal effect (redroot pigweed; AAH 320 g/ha): 1 (Herbicidal rate of 5% or more and less than 20%); I: wild oat, herbicidal effect (wild oat; AAH 320 g/ha): 0 (Herbicidal rate of 5% or less (almost no effect)); O: lambsquarters, herbicidal effect (lambsquarters; AAH 320 g/ha): 1 (Herbicidal rate of 5% or more and less than 20%); P: chickweed, herbicidal effect (chickweed; AAH 320 g/ha): 0 (Herbicidal rate of 5% or less (almost no effect)); G: green foxtail, herbicidal effect (green foxtail; AAH 320 g/ha): 0 (Herbicidal rate of 5% or less (almost no effect)); M: velvetleaf, herbicidal effect (velvetleaf; AAH 320 g/ha): 3 (Herbicidal rate of 40% or more and less than 70%); K: Italian ryegrass, herbicidal effect (Italian ryegrass; AAH 320 g/ha): 0 (Herbicidal rate of 5% or less (almost no effect)); H: barnyard grass, herbicidal effect (barnyard grass [2]; AAH 320 g/ha): 0 (Herbicidal rate of 5% or less (almost no effect)); Q: false cleavers, herbicidal effect (false cleavers; AAH 320 g/ha): 0 (Herbicidal rate of 5% or less (almost no effect)); J: blackgrass, herbicidal effect (blackgrass; AAH 320 g/ha): 0 (Herbicidal rate of 5% or less (almost no effect)); L: windgrass, herbicidal effect (windgrass; AAH 320 g/ha): 0 (Herbicidal rate of 5% or less (almost no effect)); F: southern crabgrass, herbicidal effect (southern crabgrass; AAH 320 g/ha): 0 (Herbicidal rate of 5% or less (almost no effect)); R: persian speedwell, herbicidal effect (persian speedwell; AAH 320 g/ha): 4 (Herbicidal rate of 70% or more and less than 90%) |
